In US8293782B2, “Compound, probe containing the novel compound, and fluorescence-imaging contrast agent containing the novel compound or the probe” (Canon Kabushiki Kaisha, priority 2009, dated 2012):

Test: Fading evaluation in fetal bovine serum under interior light (680 LUX)
Assay type: physicochemical
Details: 5 μM in FBS, absorbance at maximum absorption wavelength after 24 hours
Procedure: The ordinate of FIG. 10 indicates log(At/A0) where A0 and At respectively represent absorbance at the maximum absorption wavelength after the lapse of 0 and t hours from the irradiation of the interior light. The fading rate in Table 1 is expressed by (A0-A24)/A0, that is, variation in absorbance at the maximum absorption wavelength after the lapse of 24 hours.

Alexa Fluor (trademark) 750 [Reagent 1]
Fading rate (A0-A24)/A0: 4.5%
